Values of other authors, collected in US20260248891A1, “TIRZEPATIDE COMPOSITIONS AND USE” (Eli Lilly and Company, priority 2022, published 2026).

Test system: patients with obesity or overweight
Settings: Phase 3 study, currently approved doses

**Q.** For tirzepatide, which weight loss is on record?
**A.** 15.7%
